The test system of data set [1] is ZIKV human strain FLR. Put plainly: Plaque assay, inhibition of ZIKV infection (strain FLR). The class given is cell-based. The settings on record: Zika virus, Vero C1008; plaque assay, Vero E6 cells, human strain; read-out: IC50 FLR. The protocol: (§1) After removal of the unbound compounds by centrifugation (after addition of 3% PEG-6000), ZIKV was incubated with Vero E6 cells in 24-well plates at 37°C for 1 h. The cells were then washed with PBS, overlaid with DMEM containing 1% carboxymethyl cellulose and 2% FBS, and cultured at 37°C for 4–5 days, followed by being stained with 0.5% crystal violet. […] Plaques in each well were calculated, and IC50 of compounds for each compound was calculated using the CalcuSyn computer program.

The test system of data set [2] is ZIKV (PAN2016). Put plainly: Time-of-addition experiment in Vero E6 cells. The format is cell-based, Zika virus. The settings on record: for inhibition at 15 µM: Zika virus, Vero C1008, Vero E6 cells. The protocol: Briefly, Vero E6 cells (10^5/well) and/or ZIKV were incubated in 24-well plates with or without the above compounds (15 μM) for 1 h before, 1 h after, or the same time during infection of ZIKV (the detailed procedures were described below and published previously). The following six conditions of ZIKV infection were tested: (1) condition 1: pretreatment of the virus. […] The plaque assay was performed following the standard protocol described above and before. (2) condition 2: pretreatment of cells. […] The unbound ZIKV was removed, and the cells were cultured and plaques calculated as in condition 1. (3) Condition 3: attachment. […] After removal of the unbound ZIKV and compounds, the cells were cultured and plaques calculated as in condition 1. (4) Condition 4: cotreatment. […] After removal of the unbound virus and compounds, the cells were cultured and plaques were calculated as in condition 1. (5) condition 5: fusion. Cells were incubated with ZIKV (PAN2016, 300 PFU) at 4°C for 1 h for ZIKV attachment. […] The unbound compounds were removed, and the cells were cultured and plaques calculated as in condition 1. (6) Condition 6: post-entry. Cells were incubated with ZIKV (PAN2016, 100 PFU) at 37°C for 1 h for ZIKV entry. […] The unbound compounds were then removed, and the cells were cultured and calculated for plaques as in condition 1. Since variant conditions may affect the formation of plaques, the use of different PFUs can ensure that the number of plaques in the DMSO control group is about 100/well for each condition.

Data set [3] deals with T1, ZIKV EDIII protein (Zika virus, UniProt A0A024B7W1).
T1 construct: EDIII (residues 298-409 in E protein containing a C-terminal human Fc tag); human Fc (C)
Put plainly: SPR binding to ZIKV EDIII. The protocol:
(GE Healthcare, Port Washington, NY, USA). Briefly, ZIKV EDIII protein or NS2B-NS3 protein was immobilized on a sensor chip (CM5) using the Amine Coupling Kit (GE Healthcare). Serially diluted ST087010 was added as analytes, and HBS-EP with 10% DMSO (10 mM HEPES, 150 mM NaCl, 3 mM EDTA, 0.05% Tween-20, 10% DMSO, pH 7.4) was used as a running buffer. Biacore BK evaluation software (version 1.1) was applied to analyze the data, and the curve was fitted with a 1:1 binding model.
In general terms: SPR reads the build-up and loss of mass on a sensor chip optically.

In data set [4] the test system is DENV-3-V1043. Put plainly: Plaque assay, inhibition of DENV-3 infection in LLC-MK2 cells. The format is cell-based. To be noted: Dengue virus, DENV3.
Data set [5] concerns ZIKV human strain IbH 30656. Put plainly: Plaque assay, inhibition of ZIKV infection (strain IbH 30656). The settings on record: Zika virus, Vero C1008; plaque assay, Vero E6 cells, human strain; read-out: IC50 IbH 30656. The format is cell-based. The protocol:
as §1

In data set [6] the test system is ZIKV human strain PAN2016 (2016/Panama). Put plainly: Plaque assay, inhibition of ZIKV infection (strain PAN2016). The protocol: as §1
The test system of data set [7] is DENV-2 human strain V594. Put plainly: DENV-2 challenge in Ifnar1−/− mice, flow cytometry titers. The format is in vivo. To be noted: 20 mg/kg i.p., 3 dpi. The protocol: Three days after infection, sera and tissues, including the brain, kidney, and heart, were collected and assessed for DENV infection using a flow cytometry assay, as described below. Tissues were freshly homogenized with cold culture medium (EMEM + 2% FBS) and centrifuged at 4°C and 2000 g for 10 min. Serially diluted tissue supernatants and sera were added to C6/36 cells, as described below. DENV titers in tissues or sera were assessed from ~20 mg of tissue samples, or 25 μl of sera, and used for subsequent flow cytometry analysis.
Flow cytometry assay was carried out to analyze DENV-2 titers in the supernatants of homogenized tissues and sera from DENV-2-infected mice collected above. Briefly, homogenized tissue supernatants or sera were added to C6/36 cells (5×10^5 cells/well) pre-seeded in 24-well plates which the culture medium was removed, and the cells were incubated for 1 h (28°C, 5% CO2). After incubation, the cells were washed with PBS, incubated with EMEM containing 2% FBS, and then cultured for 3 days as described above. After further removal of medium, the cells were digested, washed with PBS, and resuspended in FIX/PERM solution (Tonbo Biosciences, San Diego, CA, USA), followed by incubation at 4°C for 1 h in the dark. The cells were then sequentially incubated with mouse anti-flavivirus mAb 4G2 (2 μg/ml) at 37°C for 1 h and FITC-labeled anti-mouse IgG (0.5 mg/ml, BioLegend, San Diego, CA, USA) at 37°C for 30 min, followed by analysis using a FACScan flow cytometer and Summit software. Viral titers (infectious units/ml or infectious units/g) were calculated using the formula ((% of infected cells)×(total number of cells)×(dilution factor)/(amount of inoculum added to cells)).

[8] abbreviates: C6/36 cells, flow cytometry, representative image.

Like-named read-outs stand apart in the source and are kept apart here.

T1 sequence (A0A024B7W1 588-699): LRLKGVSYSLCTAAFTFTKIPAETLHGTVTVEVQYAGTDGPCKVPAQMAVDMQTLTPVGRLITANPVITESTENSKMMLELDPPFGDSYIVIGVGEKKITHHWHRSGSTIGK

As usually defined, the IC50 is the concentration that gives 50% inhibition. As a reminder, the inhibition is the percentage by which the read-out fell short of the control. What is called Kd is the concentration at which binding is half-saturated. Read a high Kd as lower affinity. Take `Cc1cc2c(C(C)C)c(O)c(O)c(/C=N/n3c(=O)[nH][nH]c3=O)c2c(O)c1-c1c(C)cc2c(C(C)C)c(O)c(O)c(/C=N/n3c(=O)[nH][nH]c3=O)c2c1O` [ST087010]: the IC50 in data set [1] was 2.8 µM; in data set [4], 3.33 ± 0.08 µM; in data set [5] it was 2.9 µM; in data set [6] (Zika virus, Vero C1008, in Homo sapiens, read-out: IC50 against infection of ZIKV PAN2016, plaque assay, Vero E6 cells) it was 3.2 µM; in data set [6] (read-out: IC50 against infection of ZIKV PAN2016, plaque assay, Vero E6 cells) it was 3.17 ± 0.18 µM. Also, the “Inhibition of ZIKV infection, condition 2: pretreatment of cells” value in data set [2] (15 μM, Vero E6 cells) was “no, or little”. Further, the “Inhibition of ZIKV infection, condition 4: cotreatment” value in data set [2] (15 μM, Vero E6 cells) is “no, or little”. Moreover, the “Inhibition of ZIKV infection, condition 5: fusion” value in data set [2] (15 μM, Vero E6 cells) was “no, or little”. Besides, the “Inhibition of ZIKV infection, condition 1: pretreatment of the virus” value in data set [2] (15 μM, virus incubated with compound at 37°C for 1 h before Vero E6 cells) is “almost completely inhibited”. The inhibition at 15 µM was below 40% in data set [2] (4°C 1 h, read-out: Inhibition of ZIKV infection, condition 3: attachment) and below 20% in data set [2] (read-out: Inhibition of ZIKV infection, condition 6: post-entry). Besides, binding in data set [3] was put at a Kd of 4.95 µM. Also, the “SI (CC50/IC50)” value in data set [6] (CC50 Vero E6 / IC50 ZIKV PAN2016) came out at 15.63. The “Numbers of infected cells (viral titers) in the brain, kidney, heart, and sera” value in data set [7] (DENV-2 V594 2×10^6 PFU, compared to gossypol and DMSO) was “significantly reduced”. For the same compound, the “DENV-2 in brain, percentage of infected cells” value in data set [7] (setting [8]) is recorded as 1.1%. The “DENV-2 in heart, percentage of infected cells” value in data set [7] (setting [8]) came to 1.0%. Also, in data set [7] (setting [8]), the “DENV-2 in kidney, percentage of infected cells” value is recorded as 3.1%. Further, the “DENV-2 in sera, percentage of infected cells” value in data set [7] (setting [8]) is 1.3%.

The record behind these values is paper PMC9202104 (BMC Biology, 2022).
